Data from patent publication US20250281424A1 (New York Blood Center, Inc, priority 2020, published 2025).
pIC50: −log10 of the molar value. Like-named read-outs stand apart in the source and are kept apart here.

Target: T1, human PF4 (Homo sapiens, UniProt P02776)
T1 construct: PF4 is a 70 amino acid, lysine-rich 7.8 kDa platelet-specific protein; made in house; host or cells: Escherichia coli BL21DE3 pLysS (pT7-7) and/or Drosophila S2 cells
T1 sequence (P02776 32-101): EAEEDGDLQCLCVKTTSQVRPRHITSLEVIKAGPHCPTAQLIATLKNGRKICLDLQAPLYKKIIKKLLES
Assay: Inhibition of PF4 tetramer formation (BS3 cross-linking, SDS-PAGE)
Type: biochemical
Conditions: for inhibition at 1 µM: 1 μM inhibitor; for inhibition at 3 µM: 3 μM inhibitor (column A); for inhibition at 5 µM: 5 μM inhibitor; for inhibition at 10 µM: 10 μM inhibitor (column A)
In short: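 Monomer, dimer, trimer and tetramer fractions were quantified by densitometry after reducing 12% SDS-PAGE of BS3-cross-linked (0.2 mM, 30 min, room temperature) PF4. Before cross-linking, 10 μg/ml E. coli-expressed human WT PF4 in PBS was exposed to compound for 15 min at 37° C or 60 min at room temperature; controls lacked compound.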

[1] = read-out: % inhibition of PF4 tetramer formation at single concentration of inhibitor
[2] = read-out: IC50 of PF4 tetramer formation inhibition

COCC(=O)C1C(=O)c2ccc(S(=O)(=O)c3ccc4c(c3)C(=O)C(C(=O)COC)C4=O)cc2C1=O (stereo not drawn) [Example 377, 2-(2-methoxyacetyl)-5-{[2-(2-methoxyacetyl)-1,3-dioxo-2,3-dihydro-1H-inden-5-yl]sulfonyl}-2,3-dihydro-1H-indene-1,3-dione]
inhibition at 1 µM [1]: 26% | inhibition at 3 µM [1]: 41%

CC(C)(C)OC(=O)N1CCC[C@@H]1C(=O)C1C(=O)c2ccc(S(=O)(=O)c3ccc4c(c3)C(=O)C(C(=O)[C@H]3CCCN3C(=O)OC(C)(C)C)C4=O)cc2C1=O (stereo partly drawn) [Example 162, tert-butyl (2R)-2-[5-({2-[(2R)-1-[(tert-butoxy)carbonyl]pyrrolidine-2-carbonyl]-1,3-dioxo-2,3-dihydro-1H-inden-5-yl}sulfonyl)-1,3-dioxo-2,3-dihydro-1H-indene-2-carbonyl]pyrrolidine-1-carboxylate]
inhibition at 5 µM [1]: 86% | inhibition at 10 µM [1]: 94% | pIC50 [2]: 5.59

CC(=O)C1C(=O)c2ccc(Oc3ccc4c(c3)C(=O)C(C(C)=O)C4=O)cc2C1=O (stereo not drawn) [Example 9, 5-(2-acetyl-2,3-dihydro-1,3-dioxo-1h-inden-6-yloxy)-2-acetyl-2,3-dihydro-1,3-dioxo-1h-indene]
pIC50 [2]: 4.28

CC(C(=O)C1C(=O)c2ccc(S(=O)(=O)c3ccc4c(c3)C(=O)C(C(=O)C(C)c3ccc(F)cc3)C4=O)cc2C1=O)c1ccc(F)cc1 (stereo not drawn) [Example 243, 2-[2-(4-fluorophenyl)propanoyl]-5-({2-[2-(4-fluorophenyl)propanoyl]-1,3-dioxo-2,3-dihydro-1H-inden-5-yl}sulfonyl)-2,3-dihydro-1H-indene-1,3-dione]
inhibition at 1 µM [1]: 19% | inhibition at 3 µM [1]: 21%

O=C(c1ccc2c(c1)C(=O)C(C(=O)NCc1ccccc1)C2=O)c1ccc2c(c1)C(=O)C(C(=O)NCc1ccccc1)C2=O (stereo not drawn) [Example 25, 5,5′-carbonylbis(1,3-dioxo-indan-2-carboxylic acid ((phenyl)methyl)-amide)]
inhibition at 5 µM [1]: 63% | inhibition at 10 µM [1]: 70% | pIC50 [2]: 5.20

CCCC(=O)C1C(=O)c2ccc(C(=O)c3ccc4c(c3)C(=O)C(C(=O)CCC)C4=O)cc2C1=O (stereo not drawn) [Example 150, 2-butanoyl-5-(2-butanoyl-1,3-dioxo-2,3-dihydro-1H-indene-5-carbonyl)-2,3-dihydro-1H-indene-1,3-dione]
inhibition at 5 µM [1]: 50% | inhibition at 10 µM [1]: 75% | pIC50 [2]: ~4.66

O=C(c1ccc2c(c1)C(=O)C(C(=O)C1CCOC1)C2=O)c1ccc2c(c1)C(=O)C(C(=O)C1CCOC1)C2=O (stereo not drawn) [Example 146, 5-[1,3-dioxo-2-(oxolane-3-carbonyl)-2,3-dihydro-1H-indene-5-carbonyl]-2-(oxolane-3-carbonyl)-2,3-dihydro-1H-indene-1,3-dione]
inhibition at 5 µM [1]: 44% | inhibition at 10 µM [1]: 40%

CCOC(=O)CCNC(=O)C1C(=O)c2ccc(C(=O)c3ccc4c(c3)C(=O)C(C(=O)NCCC(=O)OCC)C4=O)cc2C1=O (stereo not drawn) [Example 27, 5,5′-carbonylbis(3-[(1,3-dioxo-indane-2-carbonyl)-amino]-propionic acid ethyl ester)]
pIC50 [2]: 4.97

O=C(c1ccc2c(c1)C(=O)C(Br)C2=O)c1ccc2c(c1)C(=O)C(Br)C2=O (stereo not drawn) [Example 244, 2-bromo-5-(2-bromo-1,3-dioxo-2,3-dihydro-1H-indene-5-carbonyl)-2,3-dihydro-1H-indene-1,3-dione]
inhibition at 1 µM [1]: 21% | inhibition at 3 µM [1]: 43%

CO[C@@H](C)C(=O)C1C(=O)c2ccc(Oc3ccc4c(c3)C(=O)C(C(=O)[C@H](C)OC)C4=O)cc2C1=O (stereo partly drawn) [Example 248, 2-[(2S)-2-methoxypropanoyl]-5-({2-[(2S)-2-methoxypropanoyl]-1,3-dioxo-2,3-dihydro-1H-inden-5-yl}oxy)-2,3-dihydro-1H-indene-1,3-dione]
pIC50: 5.52 | inhibition at 1 µM [1]: 26% | inhibition at 3 µM [1]: 56%

COCCOCCNCC(=O)C1C(=O)c2ccc(S(=O)(=O)c3ccc4c(c3)C(=O)C(C(=O)CNCCOCCOC)C4=O)cc2C1=O (stereo not drawn) [Example 397, 2-(2-{[2-(2-methoxyethoxy)ethyl]amino}acetyl)-5-{[2-(2-{[2-(2-methoxyethoxy)ethyl]amino}acetyl)-1,3-dioxo-2,3-dihydro-1H-inden-5-yl]sulfonyl}-2,3-dihydro-1H-indene-1,3-dione]
inhibition at 1 µM [1]: 2% | inhibition at 3 µM [1]: 9%

Cc1ccccc1C(=O)CCC(=O)C1C(=O)c2ccc(S(=O)(=O)c3ccc4c(c3)C(=O)C(C(=O)CCC(=O)c3ccccc3C)C4=O)cc2C1=O (stereo not drawn) [Example 254, 2-[4-(2-methylphenyl)-4-oxobutanoyl]-5-({2-[4-(2-methylphenyl)-4-oxobutanoyl]-1,3-dioxo-2,3-dihydro-1H-inden-5-yl}sulfonyl)-2,3-dihydro-1H-indene-1,3-dione]
inhibition at 1 µM [1]: 28% | inhibition at 3 µM [1]: 51%

O=C(c1ccc2c(c1)C(=O)C(C(=O)Nc1ccccc1)C2=O)c1ccc2c(c1)C(=O)C(C(=O)Nc1ccccc1)C2=O (stereo not drawn) [Example 14, 5,5′-carbonylbis(1,3-dioxo-indan-2-carboxylic acid phenylamide)]
inhibition at 30 µM (30 μM inhibitor, read-out: % inhibition of PF4 tetramer formation at single concentration of inhibitor): 96% | pIC50 [2]: 6.00

COCCOCCC(=O)C1C(=O)c2ccc(C(=O)c3ccc4c(c3)C(=O)C(C(=O)CCOCCOC)C4=O)cc2C1=O (stereo not drawn) [Example 382, 2-[3-(2-methoxyethoxy)propanoyl]-5-{2-[3-(2-methoxyethoxy)propanoyl]-1,3-dioxo-2,3-dihydro-1H-indene-5-carbonyl}-2,3-dihydro-1H-indene-1,3-dione]
inhibition at 1 µM [1]: 20% | inhibition at 3 µM [1]: 70% | pIC50 [2]: 6.54

COC(=O)[C@@H]1C[C@H]1C(=O)C1C(=O)c2ccc(C(=O)c3ccc4c(c3)C(=O)C(C(=O)[C@@H]3C[C@H]3C(=O)OC)C4=O)cc2C1=O (stereo partly drawn) [Example 217, methyl (1R,2R)-2-(5-{2-[(1R,2R)-2-(methoxycarbonyl)cyclopropanecarbonyl]-1,3-dioxo-2,3-dihydro-1H-indene-5-carbonyl}-1,3-dioxo-2,3-dihydro-1H-indene-2-carbonyl)cyclopropane-1-carboxylate]
inhibition at 5 µM [1]: 91% | inhibition at 10 µM [1]: 95% | pIC50 [2]: 5.92

O=C(c1ccc2c(c1)C(=O)C(C(=O)Nc1ccc(Cl)cc1)C2=O)c1ccc2c(c1)C(=O)C(C(=O)Nc1ccc(Cl)cc1)C2=O (stereo not drawn) [Example 78, N-(4-chlorophenyl)-5-{2-[(4-chlorophenyl)carbamoyl]-1,3-dioxo-2,3-dihydro-1H-indene-5-carbonyl}-1,3-dioxo-2,3-dihydro-1H-indene-2-carboxamide]
pIC50 [2]: 5.85

O=C(c1ccc2c(c1)C(=O)C(C(=O)CSc1ccncc1)C2=O)c1ccc2c(c1)C(=O)C(C(=O)CSc1ccncc1)C2=O (stereo not drawn) [Example 289, 5-{1,3-dioxo-2-[2-(pyridin-4-ylsulfanyl)acetyl]-2,3-dihydro-1H-indene-5-carbonyl}-2-[2-(pyridin-4-ylsulfanyl)acetyl]-2,3-dihydro-1H-indene-1,3-dione]
inhibition at 1 µM [1]: 27% | inhibition at 3 µM [1]: 52%

COC(=O)c1ccccc1NC(=O)C1C(=O)c2ccc(C(=O)c3ccc4c(c3)C(=O)C(C(=O)Nc3ccccc3C(=O)OC)C4=O)cc2C1=O (stereo not drawn) [Example 99, methyl 2-[5-(2-{[2-(methoxycarbonyl)phenyl]carbamoyl}-1,3-dioxo-2,3-dihydro-1H-indene-5-carbonyl)-1,3-dioxo-2,3-dihydro-1H-indene-2-amido]benzoate]
inhibition at 5 µM [1]: 44% | inhibition at 10 µM [1]: 100% | pIC50 [2]: 4.89

CSCCCC(=O)C1C(=O)c2ccc(Oc3ccc4c(c3)C(=O)C(C(=O)CCCSC)C4=O)cc2C1=O (stereo not drawn) [Example 283, 2-[4-(methylsulfanyl)butanoyl]-5-({2-[4-(methylsulfanyl)butanoyl]-1,3-dioxo-2,3-dihydro-1H-inden-5-yl}oxy)-2,3-dihydro-1H-indene-1,3-dione]
inhibition at 10 µM [1]: 86% | pIC50 [2]: 5.00

COCCOCCNCC(=O)C1C(=O)c2ccc(C(=O)c3ccc4c(c3)C(=O)C(C(=O)CNCCOCCOC)C4=O)cc2C1=O (stereo not drawn) [Example 393, 2-(2-{[2-(2-methoxyethoxy)ethyl]amino}acetyl)-5-[2-(2-{[2-(2-methoxyethoxy)ethyl]amino}acetyl)-1,3-dioxo-2,3-dihydro-1H-indene-5-carbonyl]-2,3-dihydro-1H-indene-1,3-dione]
inhibition at 1 µM [1]: 1% | inhibition at 3 µM [1]: 4%

CCNC(=O)C1C(=O)c2ccc(S(=O)(=O)c3ccc4c(c3)C(=O)C(C(=O)NCC)C4=O)cc2C1=O (stereo not drawn) [Example 336, N-ethyl-5-{[2-(ethylcarbamoyl)-1,3-dioxo-2,3-dihydro-1H-inden-5-yl]sulfonyl}-1,3-dioxo-2,3-dihydro-1H-indene-2-carboxamide]
inhibition at 1 µM [1]: 25% | inhibition at 3 µM [1]: 35%

CC(C)C(=O)NCC(=O)C1C(=O)c2ccc(S(=O)(=O)c3ccc4c(c3)C(=O)C(C(=O)CNC(=O)C(C)C)C4=O)cc2C1=O (stereo not drawn) [Example 191, 2-methyl-N-{2-[5-({2-[2-(2-methylpropanamido)acetyl]-1,3-dioxo-2,3-dihydro-1H-inden-5-yl}sulfonyl)-1,3-dioxo-2,3-dihydro-1H-inden-2-yl]-2-oxoethyl}propanamide]
inhibition at 5 µM [1]: 74% | inhibition at 10 µM [1]: 79% | pIC50 [2]: ~5.52

COCCOCC(=O)C1C(=O)c2ccc(Oc3ccc4c(c3)C(=O)C(C(=O)COCCOC)C4=O)cc2C1=O (stereo not drawn) [Example 396, 2-[2-(2-methoxyethoxy)acetyl]-5-({2-[2-(2-methoxyethoxy)acetyl]-1,3-dioxo-2,3-dihydro-1H-inden-5-yl}oxy)-2,3-dihydro-1H-indene-1,3-dione]
inhibition at 1 µM [1]: 14% | inhibition at 3 µM [1]: 17%
